How the values were obtained:
rat eye = test: Reduction in intraocular pressure following topical ocular (corneal) insulin administration, rat; type: in vivo; conditions: repeated small volume applications on upper third of the cornea
Procedure: (§1) Several Insulin preparations were administered to the cornea of rats and rabbits by repeated small volume applications on the upper third of the cornea with necessary measures to minimize conjunctival absorption and drainage to the nasal cavity. Reductions in intraocular pressure ranged from 28% to 36.5% in the rabbit eye and 22% to 29% in the rat eye.

rabbit eye = test: Reduction in intraocular pressure following topical ocular (corneal) insulin administration, rabbit; type: in vivo; conditions: repeated small volume applications on upper third of the cornea
Procedure: as §1

filtering bleb = test: Success rate of filtering bleb after trabeculectomy; type: in vivo, rabbit; conditions: rabbits after trabeculectomy; daily injections to the filtering bleb
Procedure: 15 rabbits underwent trabeculectomy. Five rabbits were treated with daily insulin injections to the filtering bleb, 5 others received denaturized insulin and another 5 rabbits received same volume and same frequency of balanced salt solution. The results of successful blebs at month 4 were 4 out of 5 for the insulin group, and 2 out of 5 and 3 out of 5 for the denaturized insulin and the balanced salt solution respectively.

diabetic patients = test: Systemic insulin and intraocular pressure in humans; type: in vivo, human
From the text: Recently there is a growing worldwide trend towards appreciating the merits of insulin in the treatment of diabetic patients. Contrary to the previous practice, patient are encouraged now to switch from oral hypoglycemic treatment to insulin treatment, or even to start therapy with insulin without a period of therapy with the oral hypoglycemic agents. Twelve diabetic patients were scheduled to start insulin therapy. […] None of them had been found with diabetic retinopathy or glaucoma. The drug prescription history was reviewed, and none of the twelve patients was found with systemic therapy that can affect the intraocular pressure measurements. So far, none of them was switched to systemic therapy with drugs that can affect the intraocular pressure. Pachymetry measurements have shown stability, without correlation with the level of intraocular pressure. There was also no correlation between blood glucose levels and the intraocular pressure. The patients were followed at 2 weeks interval in first months and then once every 3 weeks. […] After 2 months reduction in intraocular pressure was higher than 15% from baseline in all cases. At the end of 3 months the reduction in intraocular pressure for all patients ranged from 24% up to 35% from baseline. This level of intraocular pressure reduction was maintained during the follow up until now.

Substance	reduction in intraocular pressure (rat eye)	reduction in intraocular pressure (rabbit eye)	successful blebs at month 4 (filtering bleb)	intraocular pressure versus baseline (diabetic patients; 1 month after starting insulin therapy, twelve diabetic patients)	reduction in intraocular pressure from baseline (diabetic patients; after 2 months of insulin therapy, all cases)
denaturized insulin: similar insulin preparation that was denaturized, used as control	no stastistically significant change	no stastistically significant change	2 out of 5		
insulin			4 out of 5	significantly lower than baseline values only in 5 patients	higher than 15%
